Measurements as given in patent US20240390349A1, “DOSING REGIMEN OF CAPSID INHIBITOR” (priority 2023, published 2024).
Several values for one entry are separate records, joined by “and”; a condition that tells them apart may be missing. Equal entries are not always repeated. Entries after “also recorded” stand apart in the source; their conditions may differ.

What was measured:
[1] = clinical; settings: human, in vivo
Description: The objective of this study was to evaluate the pharmacokinetics (PK) of LEN during oral bridging period (OBP) to assess the adequacy of 300-mg PO once-weekly (QW) regimen for maintaining therapeutic concentrations between missed SC LEN doses. During OBP, sparse PK samples were collected at the start of OBP and every ˜10-12 weeks (without regard to a prespecified time since dose) until SC LEN was resumed. LEN plasma concentrations were summarized during OBP in the CAPELLA (N=57) and CALIBRATE (N=82) studies.
Participants required oral weekly bridging if an SC injection of LEN could not be administered for any reason within the protocol visit window. If 26 to 28 weeks elapsed since the last SC injection, and if clinically appropriate to continue LEN, participants started oral LEN 300 mg (1 tablet) once a week at the oral bridging visit(s) and continued weekly dosing on the same day of the week. If more than 28 weeks elapsed since the last SC injection, and if clinically appropriate to continue LEN, participants restarted the oral lead-in at the oral bridging visits and continued oral weekly dosing on the same day of the week, until SC LEN was administered, as shown in Table 6.
Oral bridging day was calculated from first dose date of Oral Bridging.

[2] = Exposure-response analyses for efficacy and safety (PopPK-derived exposures); assay type: in vivo, human
Protocol: Exposure-response relationships for LEN were evaluated in HTE PWH with HIV-1 RNA<50 copies/mL at the oral bridging baseline in the Phase 2/3 study described in Example 4, using LEN exposure parameters (Ctrough, Cavg, and Cmax) derived from PopPK modeling.
Exposure-safety relationships for LEN were evaluated in the HTE PWH studies described in Example 4 (N=55), and in treatment-naive PWH in the study described in Example 5 (N=82) who received the oral bridging LEN regimen. Exposure-safety evaluations used LEN exposure metrics (Cavg, Ctrough, and Cmax) derived from PopPK analysis and the 5 most common treatment-emergent adverse events (TEAEs) were evaluated in relation to presence/absence in the LEN group across the entire oral bridging period in the two studies separately and combined (excluding infections and infestations AEs and injection site reactions).

[3] = Safety during oral bridging period, CALIBRATE
Description: An AE could, therefore, be any unfavorable and/or unintended sign, symptom, or disease temporally associated with the use of a study drug, whether or not considered related to the study drug.
Preexisting events that increased in severity or changed in nature during or as a consequence of participation in the clinical study were also considered AEs.

[4] = tested on: HIV-1; test: Efficacy of oral bridging (HIV-1 RNA, CD4), CALIBRATE; assay type: in vivo, human
Description: This Example describes results from a Phase 2 clinical study evaluating the safety and efficacy of LEN in combination with other antiretroviral (ARV) agents in ARV-naive people with HIV (PWH).
This Example describes a Phase 2, randomized, open-label, active-controlled, multicenter study. Participants in Treatment Groups 1 and 2 required oral bridging following a clinical hold imposed by the Food & Drug Administration on injectable LEN as the SC injection of LEN could not be administered within the protocol visit window. An Oral Bridging visit was completed every 10 to 12 weeks. Participants had to have met all of the inclusion criteria and none of the exclusion criteria to be included in the study.

[5] = Safety during oral bridging period, CAPELLA; assay type: in vivo
[6] = po, Lower 90% CI of Concentration
[7] = po, Lower 90% CI of LEN concentration

CC(C)(C#Cc1ccc(-c2ccc(Cl)c3c(NS(C)(=O)=O)nn(CC(F)(F)F)c23)c([C@H](Cc2cc(F)cc(F)c2)NC(=O)Cn2nc(C(F)(F)F)c3c2C(F)(F)[C@@H]2C[C@H]32)n1)S(C)(=O)=O [LEN, N—((S)-1-(3-(4-chloro-3-(methylsulfonamido)-1-(2,2,2-trifluoroethyl)-1H-indazol-7-yl)-6-(3-methyl-3-(methylsulfonyl)but-1-yn-1-yl)pyridin-2-yl)-2-(3,5-difluorophenyl)ethyl)-2-((3bS,4aR)-5,5-difluoro-3-(trifluoromethyl)-3b,4,4a,5-tetrahydro-1H-cyclopropa [3,4]cyclopenta [1,2-c]pyrazol-1-yl) acetamide]
Mean LEN concentration and lower bound 90% CI versus efficacy target IQ4 [1]: > 15.5 ng/mL | 90% CI of mean LEN concentration ([1]; 10 week): 66.1, 86.3 | 90% CI of mean LEN concentration ([1]; 20 week): 50.4, 99.3 | 90% CI of mean LEN concentration ([1]; 30 week): 29.9, 53.5 | 90% CI of mean LEN concentration ([1]; 1 day): 40.3, 51.9 | concentration at 10 day ([1]; po, Concentration, Mean (% CV)): 76.2 ng/mL | concentration at 20 day ([1]; po, Concentration, Mean (% CV)): 74.8 ng/mL | concentration at 10 day [1, 6]: 66.1 ng/mL | concentration at 20 day [1, 6]: 50.4 ng/mL | concentration at 30 day [1, 6]: 29.9 ng/mL | concentration at 10 week [1, 7]: 66.1 ng/mL | concentration at 20 week [1, 7]: 50.4 ng/mL | concentration at 30 week [1, 7]: 29.9 ng/mL | concentration at 1 day [1, 7]: 40.3 ng/mL | Exposure-safety relationship (Cavg, Ctrough, Cmax vs common AEs) ([2]; Examples 4 (N=55) and 5 (N=82), separately and combined): lack of association between LEN exposure from oral bridging and the incidence of common AEs | Exposure-efficacy relationship (post hoc Ctrough vs HIV-1 RNA <50 or ≥50 copies/mL) ([2]; HTE PWH (Example 4)): No trend in post hoc Ctrough was observed | Participants with HIV-1 RNA<50 copies/mL at the time SC LEN was resumed ([2]; HTE PWH with HIV-1 RNA<50 at OB baseline (Example 4)): 39 of 40 | Changes from oral bridging baseline in blood pressure, pulse, respiration rate, body temperature [3]: no clinically relevant changes from oral bridging baseline | Treatment-related diarrhea ([3]; 1 participant): 1.2% | Grade 3 or higher blood creatine phosphokinase increased ([3]; 2 participants, both in oral LEN group): 1.7% | Participants with Grade 3 events ([3]; LEN total group): 2.5% | Participants with Grade 3 or higher AEs ([3]; LEN total group): 5.0% | Participants with Grade 4 events ([3]; LEN total group): 2.5% | TEAE COVID-19 ([3]; LEN total group): 5.8% | TEAE influenza ([3]; LEN total group): 7.4% | TEAE nasopharyngitis ([3]; LEN total group): 5.0% | TEAE syphilis ([3]; LEN total group): 5.0% | Participants with any AE ([3]; LEN total group (121)): 62.8% | Participants with AEs related to study drug ([3]; LEN total group, all Grade 1): 3.3% | Participants with serious AEs ([3]; LEN total group, not related to study drug): 2.5% | AE oropharyngeal pain ([3]; SC LEN total group): 4.9% | Participants with AEs related to study drug ([3]; SC LEN total group): 3.7% | Participants with Grade 3 events ([3]; SC LEN total group): 1.2% | Participants with Grade 3 or higher AEs ([3]; SC LEN total group): 3.7% | Participants with Grade 4 events ([3]; SC LEN total group): 2.4% | Participants with any AE ([3]; SC LEN total group): 64.6% | Participants with serious AEs ([3]; SC LEN total group): 2.4% | TEAE COVID-19 ([3]; SC LEN total group): 4.9% | TEAE influenza ([3]; SC LEN total group): 8.5% | TEAE nasopharyngitis ([3]; SC LEN total group): 4.9% | TEAE syphilis ([3]; SC LEN total group): 4.9% | Changes from oral bridging baseline in hematology or clinical chemistry ([3]; any treatment group): no clinically relevant changes from oral bridging baseline in median values for hematology or clinical chemistry parameters | AE arthralgia ([3]; oral LEN group): 5.1% | AE blood creatine phosphokinase increase ([3]; oral LEN group): 5.1% | AE dyslipidemia ([3]; oral LEN group): 5.1% | AE oropharyngeal gonococcal infection ([3]; oral LEN group): 5.1% | Participants with AEs related to study drug ([3]; oral LEN group): 2.6% | Participants with Grade 3 events ([3]; oral LEN group): 5.1% | Participants with Grade 3 or higher AEs ([3]; oral LEN group): 7.7% | Participants with Grade 4 events ([3]; oral LEN group): 2.6% | Participants with any AE ([3]; oral LEN group): 59.0% | Participants with serious AEs ([3]; oral LEN group): 2.6% | TEAE COVID-19 ([3]; oral LEN group): 7.7% | TEAE influenza ([3]; oral LEN group): 5.1% | TEAE nasopharyngitis ([3]; oral LEN group): 5.1% | TEAE syphilis ([3]; oral LEN group): 5.1% | AEs leading to premature discontinuation of study drug or study ([3]; oral bridging period): no TEAEs which led to a premature discontinuation of study drug or from the study were reported; also recorded: no AEs that led to premature discontinuation of study drug or from the study were reported | Deaths ([3]; oral bridging period): No deaths were reported | Overall safety and tolerability of oral LEN ([3]; oral bridging period): generally safe and well tolerated | CD4 count and CD4% during oral bridging (in words) [4]: generally stable or slightly increasing | Mean (SD) CD4 cell count at oral bridging baseline ([4]; LEN total group): 762 (285.2) /μL | Mean CD4% at oral bridging baseline ([4]; LEN total group): 34% | Proportion of participants with HIV-1 RNA<50 copies/mL ([4]; LEN total group, OB baseline): 99.2% | Proportion of participants with HIV-1 RNA<50 copies/mL ([4]; Missing=Excluded, OB Week 10): 77/77 (100) % | Proportion of participants with HIV-1 RNA<50 copies/mL ([4]; Missing=Excluded, OB Week 20): 58/58 (100) % | Proportion of participants with HIV-1 RNA<50 copies/mL ([4]; Missing=Excluded, OB Week 30): 5/5 (100) % | Proportion of participants with HIV-1 RNA<50 copies/mL ([4]; Missing=Excluded, all subsequent oral bridging time points, all treatment groups): 100% | Proportion of participants with HIV-1 RNA<50 copies/mL ([4]; Missing=Failure, Week 10, LEN total): 97.5% | Proportion of participants with HIV-1 RNA<50 copies/mL ([4]; Missing=Failure, Week 10, SC LEN total group): 97.5% | Proportion of participants with HIV-1 RNA<50 copies/mL ([4]; Missing=Failure, Week 10, oral LEN group): 97.4% | Proportion of participants with HIV-1 RNA<50 copies/mL ([4]; Missing=Failure, Week 20, LEN total): 100% | Proportion of participants with HIV-1 RNA<50 copies/mL ([4]; Missing=Failure, Week 20, SC LEN total group): 100% | Proportion of participants with HIV-1 RNA<50 copies/mL ([4]; Missing=Failure, Week 20, oral LEN group): 100% | Mean CD4% at oral bridging baseline ([4]; SC LEN total group): 35% | Proportion of participants with HIV-1 RNA<50 copies/mL ([4]; SC LEN total group (received OB), OB Baseline): 100% and 82/82 (100) % | Mean change from oral bridging baseline in CD4% ([4]; Week 10, LEN total group): 1% | Mean change from oral bridging baseline in CD4 cell count ([4]; Week 10, LEN total group): 35 µL⁻¹ | Mean change from oral bridging baseline in CD4% ([4]; Week 10, SC LEN total group): 0% | Mean change from oral bridging baseline in CD4 cell count ([4]; Week 10, SC LEN total group): 26 µL⁻¹ | Mean change from oral bridging baseline in CD4% ([4]; Week 10, oral LEN group): 1% | Mean change from oral bridging baseline in CD4 cell count ([4]; Week 10, oral LEN group): 55 µL⁻¹ | Mean change from oral bridging baseline in CD4% ([4]; Week 20, LEN total group): 0% | Mean change from oral bridging baseline in CD4 cell count ([4]; Week 20, LEN total group): 0 µL⁻¹ | Mean change from oral bridging baseline in CD4% ([4]; Week 20, SC LEN total group): 0% | Mean change from oral bridging baseline in CD4 cell count ([4]; Week 20, SC LEN total group): -31 µL⁻¹ | Mean change from oral bridging baseline in CD4% ([4]; Week 20, oral LEN group): 1% | Mean change from oral bridging baseline in CD4 cell count ([4]; Week 20, oral LEN group): 106 µL⁻¹ | Mean CD4% at oral bridging baseline ([4]; oral LEN group): 33% | Proportion of participants with HIV-1 RNA<50 copies/mL ([4]; oral LEN group, OB baseline): 97.4% | Virologic suppression / virologic failure during oral bridging (in words) ([4]; treatment-naive participants): remained virologically suppressed; also recorded: No treatment-naive participants from the study described in Example 4 experienced virologic failure | Discontinuation of study drug due to a TEAE [5]: No participant discontinued study drug due to a TEAE | Participants with Grade 2 or higher TEAEs [5]: 26.3% | Treatment-related asthenia [5]: 1.8% | Treatment-related diarrhea [5]: 3.5% | Treatment-related nausea [5]: 1.8% | Grade 5 TEAE of death ([5]; 1 participant, considered unrelated to study drug): 1.8% | Participants with treatment-related TEAEs ([5]; all Grade 1): 3.5% | AE of death leading to discontinuation of the study ([5]; one participant): 1.8% | Changes from baseline in hematology and clinical chemistry ([5]; oral bridging period): no clinically relevant changes from baseline in hematology and clinical chemistry parameters; also recorded: no clinically relevant changes from baseline in median values for hematology and clinical chemistry | Changes from baseline in vital signs ([5]; oral bridging period): no clinically relevant changes from baseline in vital signs | Overall safety and tolerability of oral LEN ([5]; oral bridging period): generally safe and well tolerated | Participants with Grade 1 TEAEs ([5]; oral bridging period): 22.8% | Participants with Grade 2 TEAEs ([5]; oral bridging period): 24.6% | TEAE COVID-19 ([5]; oral bridging period): 7.0% | TEAE cough ([5]; oral bridging period): 5.3% | TEAE diarrhea ([5]; oral bridging period): 5.3% | TEAE upper respiratory tract infection ([5]; oral bridging period): 5.3% | Participants who experienced TEAEs ([5]; oral bridging period, 57 participants): 49.1%
